Where two headings read alike, the source gives them in different places.
What was measured:
JAK2 = JAK2 (Homo sapiens (Human), UniProt O60674); assay: LanthaScreen JAK biochemical assay (JAK2)
[1] = system: oxazolone-induced colitis; assay: Mouse model of oxazolone-induced colitis; type: in vivo, BALB/C mice; settings: mouse, PO, 1, 3, and/or 10 mg/kg BID
Procedure: Assay 7: Mouse Model of Oxazalone-Induced Colitis
Oxazolone-induced colitis is an experimental model that has a histological resemblance to human ulcerative colitis (Heller et al. Immunology, 2002, 17, 629-638). Adult BALB/C mice from Harlan were used in the assay. On day 1, animals were lightly anesthetized with isoflurane and the hairs between the shoulder were carefully removed before oxazolone (4%, 150 μL, 4:1 acetone:olive oil formulation) or vehicle solution was slowly applied for skin sensitization. Seven days after skin sensitization, the mice were fasted overnight, anesthetized with isoflurane inhalation, and a 1 mL syringe equipped with a 3.5-F catheter, filled with oxazolone solution, was inserted carefully about 4 cm into the colon of the mouse. Following insertion, 50 μL of the oxazolone solution (1%, 1:1 ethanol:water formulation) was injected very slowly (over 30 sec using an injection pump) into the colon. The catheter was removed and the mice were held vertically (head down) for 2 min to ensure that the entire oxazolone solution remained inside the colon. Drug treatment (PO, BID or TID) or vehicle was initiated a day prior to the oxazolone intrarectal (IR) challenge. Two-day post oxazolone intrarectal challenge, the Disease Activity Index (DAI) was assessed by treatment-blinded experimenters for each mouse according to the criteria score: stool consistency score (0, normal; 2, loose; 4, diarrhea), gross bleeding score (0, absence; 2, blood tinged; 4, presence), and weight loss score (0, none; 1, 1%-5%; 2, 5%-10%; 3, 10%-20%; 4, more than 20%); DAI=average of (stool consistency score+gross bleeding score+weight loss score).
Selected compounds of the invention were tested in the assay. Efficacy in the model is evidenced by a decrease in DAI score as compared with the score from vehicle treated animals.

JAK1 = JAK1 (Homo sapiens (Human), UniProt P23458); assay: LanthaScreen JAK biochemical assay (JAK1)
[2] = system: IL-13 induced STAT6 phosphorylation in BEAS-2B human lung epithelial cells; assay: AlphaScreen cellular JAK potency assay, BEAS-2B; settings: Homo sapiens, BEAS-2B, read-out: BEAS2B pIC50 (converted)
[3] = system: IL-4 induced STAT6 phosphorylation in THP-1 human monocytic cells; assay: Cellular JAK potency assay, THP-1; settings: Homo sapiens, THP-1, read-out: THP-1 IL4 pIC50 (converted)
in vivo = assay: in vivo; set-up: species or system Sprague Dawley rats; settings: Sprague Dawley, rat, po, 5 mg/kg
Procedure: Assay 5: Colon Pharmacokinetics in Rats
Test compounds were individually formulated in 0.5% methyl-cellulose in water and dosed via oral gavage at 5 mg/kg to Sprague Dawley rats. At various time points (typically 1, 2, 4, 6, 24 hr) post dosing, blood samples were removed via cardiac puncture and intact colons were excised from the rats. Blood samples were centrifuged at 1500×g for 15 min to collect plasma. Colons were washed with ice cold phosphate buffered saline (PBS), weighed, and homogenized at a dilution of 1:10 in PBS. Plasma and colon levels of test compound were determined by LC-MS analysis against analytical standards constructed into a standard curve in the test matrix. A colon to plasma ratio was determined as the ratio of the colon AUC to the plasma AUC in μg hr/g.

[4] = Solid state stability assessment; type: physicochemical; set-up: Impurity at RRT 0.96 / Impurity at RRT 1.84: unit not given here
From the text: Solid State Stability Assessment
At specific intervals, the contents of a representative sample was removed and analyzed by HPLC for chemical purity and by Karl Fischer for water content.

[5] = Dynamic moisture sorption assessment; type: physicochemical
Procedure: The DMS run was performed isothermally at 25° C.

[6] = Determination of absorption in cannulated rats; type: in vivo; settings: Sprague Dawley rats, oral vs IV; for bioavailability: rat, plasma (jugular vein), jugular vein, read-out: oral bioavailability (F %)
Procedure: Drug levels were determined using an LC-MS-MS method. The resulting drug levels were used to compute the IV pharmacokinetic parameters: AUC IV and Dose IV. (2) Rats that have been cannulated in their portal vein (PV) and also in their jugular vein (JV) were dosed orally with test compound. Following oral dosing, plasma samples were typically collected from 0-6 hr from both the portal vein and the jugular vein. Drug levels were determined using an LC-MS-MS method. The resulting drug levels were used to compute the following pharmacokinetic parameters: AUC PO PV, AUC PO JV, and Dose PO. Using data derived from the above studies, the oral bioavailability F %, and the quantities Fa% and Fh% were calculated from the following formulas: F %=(AUC PO JV/AUC IV)*(Dose IV/Dose PO)*100 Fa%=(AUC PO PV/AUC IV)*(Dose IV/Dose PO)*100 Fh%=AUC PO JV/AUC PO PV where: AUC PO JV=Area under the curve following oral dose and plasma collected from the jugular vein AUC PO PV=Area under the curve following oral dose and plasma collected from the portal vein AUC IV=Area under the curve following an intravenous dose Dose IV=Intravenous Dose in mg/kg Dose PO=Oral Dose in mg/kg

mouse splenic NK cells = assay: Immunosuppression effects in mouse splenic natural killer (NK) cells; type: in vivo, Balb/C mice; settings: PO BID three days
Procedure: Adult male Balb/C mice (12-14 weeks of age) from Harlan were used for the study. […] Spleens were harvested 1 or 2 h post last dose and crushed immediately for cell subtype staining. Prior to fixation, fluorophore-labelled antibodies for CD19 (FITC; B cells), CD3e (PE; pan T cells) and DX5 (APC; NK cells) were incubated with splenocyte samples from each animal to allow for simultaneous, multiple subtype % analysis on the flow cytometer. The number of total spleen cells for each animal was measured by Scepter™ 2.0 Handheld Automated Cell Counter. The absolute number of lymphocyte subtype population (e.g., splenic B, T and NK cells) was calculated from the percentage of each subtype times total spleen cells for each animal. A one way ANOVA, with Dunnett's post hoc test, was used to compare the splenic lymphocytes number of the vehicle and test compound groups. The a level was set at p<0.05. Data were presented as the mean±SEM for each group.

Sequence of JAK1 (P23458 whole entry): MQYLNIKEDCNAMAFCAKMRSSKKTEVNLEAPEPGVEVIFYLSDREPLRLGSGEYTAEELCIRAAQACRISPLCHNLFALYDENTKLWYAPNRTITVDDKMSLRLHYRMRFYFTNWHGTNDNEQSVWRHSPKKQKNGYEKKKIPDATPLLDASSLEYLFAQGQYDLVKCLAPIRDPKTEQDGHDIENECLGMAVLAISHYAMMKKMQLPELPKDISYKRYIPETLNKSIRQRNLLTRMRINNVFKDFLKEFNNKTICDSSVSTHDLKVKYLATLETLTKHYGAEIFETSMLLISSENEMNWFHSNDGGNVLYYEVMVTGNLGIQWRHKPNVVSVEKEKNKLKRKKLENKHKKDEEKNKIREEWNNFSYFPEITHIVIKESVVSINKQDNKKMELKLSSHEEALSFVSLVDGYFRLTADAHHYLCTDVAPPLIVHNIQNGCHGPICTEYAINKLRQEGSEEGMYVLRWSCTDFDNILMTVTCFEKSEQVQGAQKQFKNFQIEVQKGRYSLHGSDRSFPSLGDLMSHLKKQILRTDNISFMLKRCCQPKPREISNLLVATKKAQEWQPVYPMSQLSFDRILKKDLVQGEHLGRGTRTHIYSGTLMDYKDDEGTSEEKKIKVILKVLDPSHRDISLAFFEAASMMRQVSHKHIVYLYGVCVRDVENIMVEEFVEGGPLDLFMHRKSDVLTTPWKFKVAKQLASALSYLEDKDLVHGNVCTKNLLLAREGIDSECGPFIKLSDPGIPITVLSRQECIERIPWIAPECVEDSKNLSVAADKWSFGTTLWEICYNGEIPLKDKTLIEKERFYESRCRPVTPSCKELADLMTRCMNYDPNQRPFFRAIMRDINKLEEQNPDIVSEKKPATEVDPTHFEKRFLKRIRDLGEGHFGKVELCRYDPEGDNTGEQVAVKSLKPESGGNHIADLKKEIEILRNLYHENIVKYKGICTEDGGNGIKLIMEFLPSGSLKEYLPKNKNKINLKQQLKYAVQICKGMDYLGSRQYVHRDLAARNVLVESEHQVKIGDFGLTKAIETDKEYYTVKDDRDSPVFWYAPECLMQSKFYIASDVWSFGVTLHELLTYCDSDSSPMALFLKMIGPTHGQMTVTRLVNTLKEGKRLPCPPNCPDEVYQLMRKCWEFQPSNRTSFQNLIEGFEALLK
Sequence of JAK2 (O60674 whole entry): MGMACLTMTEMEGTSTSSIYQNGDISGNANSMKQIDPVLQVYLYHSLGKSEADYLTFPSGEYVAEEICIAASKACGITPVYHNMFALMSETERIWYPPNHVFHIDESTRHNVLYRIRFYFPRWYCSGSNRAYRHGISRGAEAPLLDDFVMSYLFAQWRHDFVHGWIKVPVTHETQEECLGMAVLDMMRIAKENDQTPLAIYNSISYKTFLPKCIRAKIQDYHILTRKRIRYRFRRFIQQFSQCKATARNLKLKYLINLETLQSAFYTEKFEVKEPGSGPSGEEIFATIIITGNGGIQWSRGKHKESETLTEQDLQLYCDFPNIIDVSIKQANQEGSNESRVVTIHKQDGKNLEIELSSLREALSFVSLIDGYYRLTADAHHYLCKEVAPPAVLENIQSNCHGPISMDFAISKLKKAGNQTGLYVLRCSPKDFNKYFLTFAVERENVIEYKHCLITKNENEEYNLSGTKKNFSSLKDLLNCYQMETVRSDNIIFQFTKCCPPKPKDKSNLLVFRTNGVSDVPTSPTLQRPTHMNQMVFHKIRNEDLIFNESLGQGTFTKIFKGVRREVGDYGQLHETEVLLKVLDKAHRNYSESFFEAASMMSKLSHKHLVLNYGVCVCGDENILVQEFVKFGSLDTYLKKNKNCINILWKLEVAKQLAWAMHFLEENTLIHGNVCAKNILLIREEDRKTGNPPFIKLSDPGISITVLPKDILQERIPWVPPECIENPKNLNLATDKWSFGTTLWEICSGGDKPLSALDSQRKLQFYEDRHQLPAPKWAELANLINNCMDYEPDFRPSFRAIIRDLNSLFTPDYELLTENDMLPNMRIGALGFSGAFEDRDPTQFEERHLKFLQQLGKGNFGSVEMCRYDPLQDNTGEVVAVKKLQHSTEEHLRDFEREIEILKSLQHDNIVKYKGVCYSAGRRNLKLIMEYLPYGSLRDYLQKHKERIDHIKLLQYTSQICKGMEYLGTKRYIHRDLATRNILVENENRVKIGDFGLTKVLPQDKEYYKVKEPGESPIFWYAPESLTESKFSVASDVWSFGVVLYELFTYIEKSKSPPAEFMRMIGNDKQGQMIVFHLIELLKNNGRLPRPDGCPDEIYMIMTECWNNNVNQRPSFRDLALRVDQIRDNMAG

Cc1cc(Nc2cc3ncccc3c(N[C@@H]3C[C@H]4CC[C@@H](C3)N4CCF)n2)n[nH]1 [Example 2, N^5-((1R,3s,5S)-8-(2-fluoroethyl)-8-azabicyclo[3.2.1]octan-3-yl)-N^7-(5-methyl-1H-pyrazol-3-yl)-1,6-naphthyridine-5,7-diamine]
Ki (JAK2): 0.1 to 1 nM | decrease in DAI score as compared with vehicle treated animals [1]: statistically significant decrease | Ki (JAK1; read-out: JAK 1 (pKi) (converted)): 0.1 to 1 nM | IC50 [2]: 31.6 to 200 nM | IC50 [3]: 31.6 to 200 nM | Kp (in vivo): > 450

Cc1cc(Nc2cc3ncccc3c(N[C@@H]3C[C@H]4CC[C@@H](C3)N4CCC#N)n2)n[nH]1 [Form I, 3-((1R,3s,5S)-3-((7-((5-methyl-1H-pyrazol-3-yl)amino)-1,6-naphthyridin-5-yl)amino)-8-azabicyclo[3.2.1]octan-8-yl)propanenitrile]
changes in chemical content and impurity profile ([4]; 3 months at 40° C. and 75% relative humidity): no statistically significant changes | Assay ([4]; T = 0): 97.4 % w/w | HPLC purity ([4]; T = 0): 99.76 a/a % | Impurity at RRT 0.96 ([4]; T = 0): 0.07 | Impurity at RRT 1.84 ([4]; T = 0): 0.08 | Water (KF) ([4]; T = 0): <0.2 % w/w | Assay ([4]; T = 1 Month, 40° C./75% RH): 98.7 % w/w | HPLC purity ([4]; T = 1 Month, 40° C./75% RH): 99.79 a/a % | Impurity at RRT 0.96 ([4]; T = 1 Month, 40° C./75% RH): 0.07 | Impurity at RRT 1.84 ([4]; T = 1 Month, 40° C./75% RH): 0.08 | Assay ([4]; T = 3 Month, 25° C./60% RH): 96.3 % w/w | HPLC purity ([4]; T = 3 Month, 25° C./60% RH): 99.77 a/a % | Impurity at RRT 0.96 ([4]; T = 3 Month, 25° C./60% RH): 0.07 | Impurity at RRT 1.84 ([4]; T = 3 Month, 25° C./60% RH): 0.05 | Assay ([4]; T = 3 Month, 40° C./75% RH): 93.8 % w/w | HPLC purity ([4]; T = 3 Month, 40° C./75% RH): 99.75 a/a % | Impurity at RRT 0.96 ([4]; T = 3 Month, 40° C./75% RH): 0.07 | Impurity at RRT 1.84 ([4]; T = 3 Month, 40° C./75% RH): 0.05 | Water (KF) ([4]; T = 3 Month, 40° C./75% RH): <0.2 % w/w | weight gain (moisture sorption) ([5]; 5% to 90% relative humidity, room temperature, listed as Crystalline 3-(1R,3s,5S)-3-((7-((5-methyl-1H-pyrazol-3-yl)amino)-1,6-naphthyrid))): less than 0.15% | hygroscopicity ([5]; two cycles of sorption and desorption, 25° C.): non-hygroscopic

Cc1cc(Nc2cc3ncccc3c(N[C@@H]3C[C@H]4CCC[C@@H](C3)N4S(=O)(=O)c3cccnc3)n2)n[nH]1 [Example 8, N^7-(5-methyl-1H-pyrazol-3-yl)-N^5-((1R,3s,5S)-9-(pyridin-3-ylsulfonyl)-9-azabicyclo[3.3.1]nonan-3-yl)-1,6-naphthyridine-5,7-diamine]
decrease in DAI score as compared with vehicle treated animals [1]: statistically significant decrease | absorption at the portal vein (Fa%) [6]: less than 10% | bioavailability [6]: < 5% | IC50 [2]: < 31.6 nM | IC50 [3]: < 31.6 nM

Cc1cc(Nc2cc3nc(CO)ccc3c(N[C@@H]3C[C@H]4CC[C@@H](C3)N4C(=O)OCC(C)C)n2)n[nH]1 [Example 12, Isobutyl(1R,3s,5S)-3-((2-(hydroxymethyl)-7-((5-methyl-1H-pyrazol-3-yl)amino)-1,6-naphthyridin-5-yl)amino)-8-azabicyclo[3.2.1]octane-8-carboxylate]
Ki (JAK2; read-out: JAK 2 (pKi) (converted)): 0.1 to 1 nM | decrease in DAI score as compared with vehicle treated animals [1]: statistically significant decrease | Ki (JAK1): 0.1 to 1 nM | absorption at the portal vein (Fa%) [6]: less than 10% | bioavailability [6]: < 5% | IC50 [2]: 31.6 to 200 nM | IC50 [3]: 31.6 to 200 nM

Cc1cc(Nc2cc3ncccc3c(N[C@@H]3C[C@H]4CC[C@@H](C3)N4C(=O)C(F)F)n2)n[nH]1 [Example 5, 2,2-difluoro-1-((1R,3s,5S)-3-((7-((5-methyl-1H-pyrazol-3-yl)amino)-1,6-naphthyridin-5-yl)amino)-8-azabicyclo[3.2.1]octan-8-yl)ethan-1-one]
decrease in DAI score as compared with vehicle treated animals [1]: statistically significant decrease | Kp (in vivo): > 450

C[C@@H]1CCN(C(=O)CC#N)C[C@@H]1N(C)c1ncnc2[nH]ccc12 [tofacitinib]
treatment effect on B and T cell populations (mouse splenic NK cells; mouse spleen): No treatment effect | splenic NK cell counts (mouse splenic NK cells; mouse, tofacitinib 30 mg/kg, Example 1 up to 100 mg/kg): significantly decreased
